Laboratory results reported in ChEMBL document CHEMBL4043204, “meso-Dihydroguaiaretic acid derivatives with antibacterial and antimycobacterial activity” (Bioorg Med Chem, 2017).
≈ marks a conversion by molar mass, not a printed value. Calls of active or inactive are those of the source. The calls are words filed in the database; no cut-off is given here.

Assays:
Format in all cases: functional
[1] = system: Mycobacterium tuberculosis; test: Antimycobacterial activity against isoniazid/rifampicin/ethambutol-resistant Mycobacterium tuberculosis G122 assessed as inhibition of mycobacterial growth incubated for 2 weeks by MABA method; conditions: for MIC: Mycobacterium tuberculosis, G122, 336 h
[2] = system: Mycobacterium tuberculosis; test: Antimycobacterial activity against isoniazid/rifampicin/ethambutol-resistant Mycobacterium tuberculosis G122 assessed as inhibition of mycobacterial growth up to 50 ug/ml incubated for 2 weeks by MABA method
[3] = system: Mycobacterium tuberculosis; test: Antimycobacterial activity against isoniazid/rifampicin/streptomycin-resistant Mycobacterium tuberculosis G133 assessed as inhibition of mycobacterial growth up to 50 ug/ml incubated for 2 weeks by MABA method
[4] = system: Mycobacterium tuberculosis; test: Antimycobacterial activity against isoniazid/rifampicin/streptomycin-resistant Mycobacterium tuberculosis G133 assessed as inhibition of mycobacterial growth incubated for 2 weeks by MABA method; conditions: for MIC: Mycobacterium tuberculosis, G133, 336 h
[5] = system: Mycobacterium tuberculosis; test: Antibacterial activity against multidrug-resistant Mycobacterium tuberculosis

SMILES | -logMIC [1] | growth inhibition (GI) [2] | growth inhibition (GI) [3] | -logMIC [4] | MIC [1] [µg/mL] | MIC [4] [µg/mL] | MIC [5] [µg/mL]
CCCCCCCC/C=C\CCCCCCCC(=O)Oc1ccc(C[C@H](C)[C@H](C)Cc2ccc(O)c(OC)c2)cc1OC (racemic) | 3.9 | inactive | inactive | 3.9 | – | – | –
CCCCCCCC/C=C\CCCCCCCC(=O)Oc1ccc(C[C@@H](C)[C@@H](C)Cc2ccc(OC(=O)CCCCCCC/C=C\CCCCCCCC)c(OC)c2)cc1OC | 4.58 | inactive | inactive | 4.58 | – | – | –
COc1cc(C[C@@H](C)[C@@H](C)Cc2ccc(OCCN(C)C)c(OC)c2)ccc1O (racemic) | 4.23 | – | – | 4.23 | > 50 | > 50 | –
COc1cc(C[C@@H](C)[C@@H](C)Cc2ccc(OC(=O)c3ccccc3)c(OC)c2)ccc1O (racemic) | 4.01 | – | – | 4 | > 50 | > 50 | –
COc1cc(C[C@@H](C)[C@@H](C)Cc2ccc(OCCN3CCCCC3)c(OC)c2)ccc1OCCN1CCCCC1 | – | – | – | – | 6.25 (≈ 11.3 µM) | 6.25 (≈ 11.3 µM) | –
CCCCCCCCCCCCCCCCCC(=O)Oc1ccc(C[C@@H](C)[C@@H](C)Cc2ccc(OC(=O)CCCCCCCCCCCCCCCCC)c(OC)c2)cc1OC | 3.85 | inactive | inactive | 3.85 | – | – | –
COc1cc(C[C@@H](C)[C@@H](C)Cc2ccc(OC(=O)c3ccc(Br)cc3)c(OC)c2)ccc1OC(=O)c1ccc(Br)cc1 | 4.09 | inactive | inactive | 4.09 | – | – | –
COc1cc(C[C@@H](C)[C@@H](C)Cc2ccc(OC(=O)c3ccccc3[N+](=O)[O-])c(OC)c2)ccc1OC(=O)c1ccccc1[N+](=O)[O-] | 4.03 | inactive | inactive | 4.03 | – | – | –
COc1cc(C[C@@H](C)[C@@H](C)Cc2ccc(OC(=O)c3cnccn3)c(OC)c2)ccc1O (racemic) | 4.07 | – | – | 4.07 | > 50 | > 50 | –
COc1cc(C[C@@H](C)[C@@H](C)Cc2ccc(OC(=O)c3cccnc3)c(OC)c2)ccc1O (racemic) | 4.05 | – | – | 4.05 | 50 (≈ 115 µM) | 50 (≈ 115 µM) | –
CC[C@@H](CO)NCCN[C@@H](CC)CO [ETHAMBUTOL] | – | – | – | – | 6.25 (≈ 30.6 µM) | 3.12 (≈ 15.3 µM) | –
COc1cc(C[C@@H](C)[C@@H](C)Cc2ccc(OC(=O)c3ccccn3)c(OC)c2)ccc1OC(=O)c1ccccn1 | 3.91 | inactive | inactive | 3.91 | – | – | –
C[C@H]1COc2c(N3CCN(C)CC3)c(F)cc3c(=O)c(C(=O)O)cn1c23.C[C@H]1COc2c(N3CCN(C)CC3)c(F)cc3c(=O)c(C(=O)O)cn1c23.O [LEVOFLOXACIN] | – | – | – | – | 6.25 | 1.56 | –
COc1cc(C[C@@H](C)[C@@H](C)Cc2ccc(O)c(OC)c2)ccc1O [MESODIHYDROGUAIARETIC ACID] | – | – | – | – | > 50 | > 50 | 12.5 to 50 (≈ 37.8 to 151 µM)
COc1cc(C[C@@H](C)[C@@H](C)Cc2ccc(OCCN3CCCCC3)c(OC)c2)ccc1O (racemic) | – | – | – | – | 25 (≈ 56.6 µM) | 25 (≈ 56.6 µM) | –
CCCCCCCCCCCCCCCCCC(=O)Oc1ccc(C[C@H](C)[C@H](C)Cc2ccc(O)c(OC)c2)cc1OC (racemic) | 3.84 | inactive | inactive | 3.84 | – | – | –
COc1cc(C[C@@H](C)[C@@H](C)Cc2ccc(OCCN(C)C)c(OC)c2)ccc1OCCN(C)C | 4.62 | – | – | 4.62 | 12.5 (≈ 26.4 µM) | 12.5 (≈ 26.4 µM) | –
COc1cc(C[C@@H](C)[C@@H](C)Cc2ccc(OC(=O)c3cccnc3)c(OC)c2)ccc1OC(=O)c1cccnc1 | 4.2 | – | – | 4.2 | > 50 | > 50 | –

SMILES | -logMIC [1] | growth inhibition (GI) [2] | growth inhibition (GI) [3] | -logMIC [4] | MIC [1] [µg/mL] | MIC [4] [µg/mL] | MIC [5] [µg/mL]
COc1ccc(C[C@@H](C)[C@@H](C)Cc2ccc(OC)c(OC)c2)cc1OC [TERAMEPROCOL] | 4.95 | inactive | inactive | 4.35 | – | – | –
COc1cc(C[C@@H](C)[C@@H](C)Cc2ccc(OC(C)=O)c(OC)c2)ccc1O (racemic) | 4.07 | – | – | 4.07 | > 50 | > 50 | –
CCCC(=O)Oc1ccc(C[C@@H](C)[C@@H](C)Cc2ccc(OC(=O)CCC)c(OC)c2)cc1OC | 4.03 | inactive | inactive | 4.03 | – | – | –
COc1cc(C[C@@H](C)[C@@H](C)Cc2ccc(OCCN3CCCC3)c(OC)c2)ccc1OCCN1CCCC1 | – | – | – | – | 12.5 (≈ 23.8 µM) | 12.5 (≈ 23.8 µM) | –
COc1cc(C[C@@H](C)[C@@H](C)Cc2ccc(OCCN3CCCC3)c(OC)c2)ccc1O (racemic) | 4.95 | – | – | 4.95 | 25 (≈ 58.5 µM) | 25 (≈ 58.5 µM) | –
CCN(CC)CCOc1ccc(C[C@@H](C)[C@@H](C)Cc2ccc(OCCN(CC)CC)c(OC)c2)cc1OC | 4.25 | – | – | 4.25 | 25 (≈ 47.3 µM) | 25 (≈ 47.3 µM) | –
CCCC(=O)Oc1ccc(C[C@H](C)[C@H](C)Cc2ccc(O)c(OC)c2)cc1OC (racemic) | 3.93 | inactive | inactive | 3.93 | – | – | –
COc1cc(C[C@@H](C)[C@@H](C)Cc2ccc(OC)c(OC)c2)ccc1O (racemic) | 3.94 | – | – | 3.94 | 50 (≈ 145 µM) | 50 (≈ 145 µM) | –
COc1cc(C[C@@H](C)[C@@H](C)Cc2ccc(OC(=O)c3ccccc3[N+](=O)[O-])c(OC)c2)ccc1O (racemic) | 4.24 | – | – | 3.93 | 50 (≈ 104 µM) | > 50 | –
COc1cc(C[C@@H](C)[C@@H](C)Cc2ccc(OC(C)=O)c(OC)c2)ccc1OC(C)=O | 4.23 | – | – | 4.23 | > 50 | > 50 | –
COc1cc(C[C@@H](C)[C@@H](C)Cc2ccc(OCCN3CCOCC3)c(OC)c2)ccc1O (racemic) | – | inactive | inactive | – | – | – | –
COc1cc(C[C@@H](C)[C@@H](C)Cc2ccc(OC(=O)c3cnccn3)c(OC)c2)ccc1OC(=O)c1cnccn1 | 4.23 | – | – | 4.23 | > 50 | > 50 | –
COc1cc(C[C@@H](C)[C@@H](C)Cc2ccc(OC(=O)c3ccccn3)c(OC)c2)ccc1O (racemic) | 3.86 | – | – | 3.86 | 25 (≈ 57.4 µM) | > 50 | –
COc1cc(C[C@@H](C)[C@@H](C)Cc2ccc(OCCN3CCOCC3)c(OC)c2)ccc1OCCN1CCOCC1 | – | – | – | – | 6.25 (≈ 11.2 µM) | 25 (≈ 44.9 µM) | –
COc1cc(C[C@@H](C)[C@@H](C)Cc2ccc(OC(=O)c3ccccc3)c(OC)c2)ccc1OC(=O)c1ccccc1 | 4.14 | inactive | inactive | 4.14 | – | – | –
COc1cc(C[C@@H](C)[C@@H](C)Cc2ccc(OC(=O)c3ccc(Br)cc3)c(OC)c2)ccc1O (racemic) | 3.98 | – | – | 3.97 | > 50 | > 50 | –
CCCCCCCCCCCCCCCC(=O)Oc1ccc(C[C@@H](C)[C@@H](C)Cc2ccc(OC(=O)CCCCCCCCCCCCCCC)c(OC)c2)cc1OC | 4.02 | inactive | inactive | 4.02 | – | – | –
CCCCCCCCCCCCCCCC(=O)Oc1ccc(C[C@H](C)[C@H](C)Cc2ccc(O)c(OC)c2)cc1OC (racemic) | 3.93 | inactive | inactive | 3.93 | – | – | –
